Assay results: patent US9474730B2, “Methods and compositions for use with K-ras mediated disorders” (Board of Regents of the University of Texas System, priority 2012, dated 2016)
Counter-ions that a name gives are not always drawn.

Columns and labels:
[1] = system: BHK cells expressing constitutively active H-ras with endogenous K-ras knocked down; assay: K-ras knockdown (siRNA) in H-rasG12V cells, pERK Western blotting; format: cell-based, hamster; conditions: then 6 μg/mL for 48 h
Experimental: FIG. 7: Illustrates that H-rasG12V signals through endogenous K-ras: BHK cells stably expressing H-rasG12V were treated with vehicle or fendiline HCl (6 μg/mL) for 48 h. (A) ppMEK and ppERK in soluble protein fraction and pAkt levels in membrane protein fraction were measured by quantitative Western blotting. A representative blots are shown. (B) BHK cells stably expressing H-rasG12V were transfected with K-ras siRNA encoding plasmid. 24 h after transfection, cells were treated with vehicle or fendiline HCl (6 μg/mL) for a further 48 h. Whole cell lysates were prepared from serum starved cells and analyzed by quantitative Western blotting. Representative Western blots are shown. Data is shown as mean±SEM from 6 independent experiments. […] (*=p<0.05), and experimentation was performed in accordance with principles described herein;
BHK cells expressing GFP-tagged H-rasG12V were transfected with the ON-Target K-ras specific siRNA pool or non-targeting control siRNA pool (Dharmacon, Inc., Lafayette, Colo., USA) according to manufacturer's protocol. At 24 h post-transfection, the cells were treated with vehicle or Fendiline HCl; 48 h later (72 h total knockdown time) the cells were lysed for Western blot analysis. […]
Quantification of intensities was performed using FluorChemQ software.

[2] = target: T1, GFP-CTK (mGFP-tagged C-terminal region of K-ras) in MDCK cells (Homo sapiens, UniProt P01116); assay: High throughput cell-based screen: plasma membrane localization of GFP-CTK; design: species or system canine; conditions: fendiline HCl 4 ug/ml, 48 h, MDCK
T1 construct: hypervariable region of K-ras (amino acids 166-188) cloned onto the carboxy terminus of GFP; expressed in transfected cells
T1 sequence (P01116 166-188 isoform P01116-2 limits assumed): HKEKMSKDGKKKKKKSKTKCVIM
Experimental: FIG. 1: Illustrates results of a high throughput cell-based screening of chemical libraries: Madin-Darby Canine Kidney epithelial cells (MDCK) expressing monomeric green fluorescent protein (mGFP)-tagged C-terminal region of K- or H-ras (GFP-CTK and GFP-CTH) were seeded in 96 well plates and treated with drug libraries for 48 h. Cells were then fixed with paraformaldehyde and imaged by BD Pathway Imager in confocal mode; shown are representative images of cells treated with vehicle, […], and 10 μM FTI-276; wherein experimentation was performed in accordance with principles described herein;
In accordance with some embodiments described herein, wild type MDCK cells or MDCK cells expressing monomeric green fluorescent protein (mGFP)-tagged C-terminal region of K-ras or H-ras (GFP-CTK and GFP-CTH respectively) were seeded in triplicate in 96 well plates (Matrical) at a density of 30,000 cells/well and incubated for 24 h at 37° C. Compounds were individually added to test cells at a concentration of 4 μg/mL (concentration of DMSO 1%) and incubated for a further 48 h.
Cells were then fixed with 4% paraformaldehyde and stored in PBS at 4° C. until imaged. Plates were imaged using a BD Pathway High-Throughput Bioimager. Images were acquired by a 3×3 montage with 20× objective lens using GFP-confocal mode. […]

CC(NCCC(c1ccccc1)c1ccccc1)c1ccccc1 (centres unmarked) [fendiline HCl]
pERK levels after K-ras knockdown [1]: did not further reduce pERK levels
localization of GFP-CTK [2]: specifically affected localization of GFP-CTK
